Experiments:
[1] = system: human peripheral blood CD4+ T cells; experiment: DQ8 tetramers loaded with insulin B9-23 peptide, facs sorting of CD4+ T cells for TCR alpha chain sequencing; assay type: cell-based; details: control SEQ ID 10 without thioreductase motif
Text: Expression of human DQ8 MHC class II molecule is associated with reactivity to a major epitope of insulin, located in the beta chain of insulin within the amino acid sequence 9-23. Human peripheral blood naïve T cell repertoire frequently contains cells expressing germline encoded alpha chain sequences, called Trav13-1, associated with various beta chain sequences, but which are sufficient as to confer a low affinity reaction with the B9-23 insulin epitope when presented by DQ8.
Peptides encompassing the sequences of the B9-23 epitope with a thioreductase motif and a one amino acid glycine linker are produced, namely […] INS9-23 (SEQ ID 9) and control peptides without thioreductase motif and linker […] INS9-23 (SEQ ID 10)
Tetramers of DQ8 are produced and loaded with each one of peptides of SEQ ID 9 or SEQ ID 10. Loaded tetramers are incubated with human peripheral blood CD4+ T cells. Cells are washed, analysed by facs and sorted out. Cells are then washed from tetramers and used for TCR alpha chain sequencing using corresponding primers.

[2] = system: CD4+ T cells from peripheral blood; experiment: MHC class II tetramers loaded with influenza hemagglutinin peptide, counting of CD4+ T cells by facs before and after vaccination; assay type: cell-based; details: fluorescence-labeled MHC class II tetramers loaded with peptide; compared with peptide of SEQ ID 4 without thioreductase motif
[3] = system: MOG-specific naïve CD4+ T cells; experiment: DRB1*1501 MHC class II tetramers loaded with MOG peptide, detection of naïve CD4+ T cells by facs; assay type: cell-based, human; details: DRB1*1501 tetramers loaded with peptide, 2 h at 37° C, control: same peptide without thioreductase motif (SEQ ID NO:2)
Experimental: Naïve CD4+ T cells are prepared from the peripheral repertoire of DRB1*1501+ subjects susceptible to suffer from multiple sclerosis, using magnetic beads to remove CD4(−) cells and memory cells, as described in the art. Tetramers of DRB1*1501 are made as known in the art (Kasprowicz V et al. (2006) J. Virol. 80, 11209-112017), including a fluorescent label such as Ficoerythrin. A synthetic peptide is produced, which encompasses the corresponding class II-restricted MOG
T cell epitope and a thioreductase motif CGPCSRVVHLYRNGK D [SEQ ID NO: 1], which corresponds to amino acid residues 47-58 of the MOG protein.
Tetramers are loaded with peptide of SEQ ID 1 overnight at room temperature in the appropriate buffer conditions as known in the art. Loaded tetramers are then washed and incubated with naïve CD4+ T cells for 2 h at 37° C. The suspension is then read with a fluorescence-activated cell sorting (facs) system and the proportion of naïve cells specific to the MOG peptide evaluated Control experiments are performed with MHC complex with the same peptide without thioreductase motif. SRVVHLYRNGKD [SEQ ID NO:2].

[4] = system: GAD65-specific CD4+ T cells; experiment: Sorting of GAD65-specific CD4+ T cells from NOD mouse spleen with peptide-loaded class II tetramers and expansion to cytolytic CD4+ T cells; assay type: cell-based, NOD mice
Experimental: NOD (non-obese diabetic) mice spontaneously develop diabetes by progressive destruction of insulin-producing Langerhans islet cells. NOD mice are considered as a representative pre-clinical model of human IDDM. Effector CD4+ T cells against GAD65 are prepared from the spleen of diseased animals by first depleting non-CD4+ cells. CD4+ cells are then incubated with class II tetramers loaded with a GAD65 class II restricted epitope encompassing a thioreductase motif in flanking residues.
The sequence of the peptide is therefore CRLCKVAPVIKARMM (GAD65 524-543) (SEQ ID NO: 7) A peptide of GAD65 without thioreductase motif is prepared for control experiments KVAPVIKARMM (SEQ ID NO: 8).
Cells are then sorted by facs according to their binding of peptide-loaded tetramers. Positive cells are then maintained in culture and stimulated with APC loaded with peptide of SEQ ID 7 to generate cytolytic CD4+ T cells, as described in the WO2008017517 patent application.

[5] = system: Dby-specific CD4+ T cells; experiment: Depletion of Dby-specific CD4+ T cells with peptide-loaded H-2b class II beads, then male bone marrow grafting in reconstituted RAG2 KO mice; assay type: in vivo, mouse; details: RAG2 KO mice reconstituted with female H-2b lymphocytes depleted on beads coated with class II H-2b molecules loaded with peptide
Text: In the mouse model, male bone marrow is rejected by syngeneic females due to recognition of H-Y encoded antigens among which the Dby protein plays a major role. A majority of CD4+ T cells recognize an epitope made of residues FNSNRANSS of the murine Dby antigen which is encoded by the […]
A synthetic peptide made of this class II restricted T cell epitope with a thioreductase motif is produced, corresponding to CHGCFNSNRANSS [SEQ ID NO:5] and the corresponding Dby peptide in natural configuration is produced as a control, namely […].
Lymphocytes from the spleen of female H-2b mice are prepared by magnetic bead sorting. The cells are then incubated with a suspension of beads coated with class II H-2b molecules and loaded with peptide of SEQ ID 5 or of SEQ ID 6. Lymphocytes T cells, containing all CD4+ T cells not retained on beads and CD8+ T cells, are used to reconstitute RAG2 KO mice, which are then engrafted by the bone marrow of a male syngeneic donor. RAG2 KO mice have no functional adaptive immune system and are therefore unable to reject the graft. Rejection is thereby depending only of cells present in the passively transferred population.

## CGHCGSHLVEALYLVCGERG (redox motif + glycine linker+ insulin epitope) [SEQ ID 9]
[1]
  number of cells obtained by tetramer sorting for TCR sequencing: obtained in sufficient number as to allow TCR sequencing

## CGHCKYVKQNTLKHEMAGG (redox motif + influenza hemaglutinin epitope) [SEQ ID 3]
[2]
  number of CD4+ T cells detected in peripheral blood: higher number of CD4+ T cells are detected

## CGPCSRVVHLYRNGKD [SEQ ID 1]
[3]
  detection of naïve CD4+ T cells specific to the MOG sequence: able to detect naïve CD4+ T cells

## CRLCKVAPVIKARMM (redox motif + GAD65 epitope) [SEQ ID 7]
[4]; tetramer sorting compared with the method of WO2008017517 (peptide added to T cells from spleen of NOD mice)
  yield of GAD65-specific cytolytic CD4+ T cells: higher
[4]; tetramers loaded with peptide of SEQ ID 7 instead of peptide of SEQ ID 8
  yield of GAD65-specific cytolytic CD4+ T cells: significantly increased

## FNSNRANSS (Dby epitope) [SEQ ID 6]
[5]
  graft acceptance (male bone marrow): no improvement of graft acceptance
